# Assay results reported in patent publication US20040192782A1, “Erucamide compounds for the treatment and prevention to disturbances of the secretory system” (priority 2001, published 2004).
# What was measured:
# [1] = system: cholera toxin induced diarrhea in the jejunum of the rat; details: in vivo
# [2] = system: transport of Na+ from plasma to CSF; test: CSF production measured as 22Na+ transport from plasma to CSF after intraventricular administration; format: in vivo, rat; details: 5 μl/min, 300 g rats under halothan, 22Na+ i.v. 30 min after erucamide
# Text: Effect of erucamide and analogues thereof on CSF production Production of CSF depends mainly on active transport of Na^+ from the blood to the brain ventricles (Davson and Segal, 1970). Water then follows the net transport of Na^+ and other ions to maintain osmotic balance. Therefore, formation of CSF is directly proportional to Na^+ transport into the ventricular cavities. A simple technique to measure CSF production is to determine the turnover of plasma Na^+ into CSF. The method involves maintenance of a steady state level of ^22Na^+ in plasma and sampling ^22Na^+ in the CSF at various times after injection of the isotope (Knuckey et al., 1991). […] A 2-3 mm long micro-dialysis tubing, connecting 2 polyethylene tubings, was permanently placed in the cisterna magna for sampling of CSF. […] Blood samples were taken from the tail veins at 15, 30, 90 and 180 min. Blood and CSF samples were analyzed for radioactivity. Intraventricularly administered erucamide reduced by over 40% the transport of Na^+ from plasma to CSF.
# CSF production = details: in vivo; cited from earlier work
compound,measurement,setting,value
"CCCCCCCC/C=C\CCCCCCCCCCCC(=O)O [Erucic acid, cis-13-docosenoic acid, reference compound]",Antisecretory activity in the rat intestine model (in words),[1],does not display any antisecretory activity
"CCCCCCCC/C=C\CCCCCCCCCCCC(N)=O [erucamide, cis-13-docosenoamide]","Dose giving maximal antisecretory activity, expressed as concentration",[1],0.3 pM
same,Dose giving maximal antisecretory activity,[1]; iv,1×10^−10 g/kg/dose
same,Maximal antisecretory activity (inhibition of cholera toxin induced diarrhea),[1]; iv,75 % inhibition
same,Reduction of transport of Na+ from plasma to CSF,[2],over 40%
"CCCCC/C=C\C/C=C\C/C=C\C/C=C\CCCC(=O)O [Arachidonic acid, reference compound]",Antisecretory activity relative to erucamide activity,[1],less than 20 % of the erucamide activity
CC(=O)Nc1nnc(S(N)(=O)=O)s1 [aztzoiamide],Inhibition of CSF production,CSF production,50%
